Values joined by “and” are separate entries in the source; they are usually repeats but may differ in a detail not shown here. Equal entries are not always repeated. Where two headings read alike, the source gives them in different places.
Assays:
[1] = tested on: pY88-H4; experiment: Endogenous H4 Y88-phosphorylation in LNCaP cells; type: cell-based, human; conditions: 16 hrs (FIG. 5b)
Description: (§1) In FIG. 5(a), equimolar amounts of purified ACK1 and H4 proteins were incubated in the presence of DZ1-067 (100 nM) and reaction subjected to immunoblotting with pY88-H4 antibodies. […] The nuclear lysates were immunoprecipitated with pY88-H4 antibodies followed by immunoblotting with H4. Lower panel is input lysate.

[2] = biological target: T1, ACK1 (Homo sapiens, UniProt Q07912); experiment: In vitro kinase assay, purified ACK1 and histone H4, pY88-H4 immunoblotting; type: biochemical; parameters: made in house; host or cells: insect cells; conditions: DZ1-067 100 nM (FIG. 5a)
T1 sequence (Q07912 whole entry): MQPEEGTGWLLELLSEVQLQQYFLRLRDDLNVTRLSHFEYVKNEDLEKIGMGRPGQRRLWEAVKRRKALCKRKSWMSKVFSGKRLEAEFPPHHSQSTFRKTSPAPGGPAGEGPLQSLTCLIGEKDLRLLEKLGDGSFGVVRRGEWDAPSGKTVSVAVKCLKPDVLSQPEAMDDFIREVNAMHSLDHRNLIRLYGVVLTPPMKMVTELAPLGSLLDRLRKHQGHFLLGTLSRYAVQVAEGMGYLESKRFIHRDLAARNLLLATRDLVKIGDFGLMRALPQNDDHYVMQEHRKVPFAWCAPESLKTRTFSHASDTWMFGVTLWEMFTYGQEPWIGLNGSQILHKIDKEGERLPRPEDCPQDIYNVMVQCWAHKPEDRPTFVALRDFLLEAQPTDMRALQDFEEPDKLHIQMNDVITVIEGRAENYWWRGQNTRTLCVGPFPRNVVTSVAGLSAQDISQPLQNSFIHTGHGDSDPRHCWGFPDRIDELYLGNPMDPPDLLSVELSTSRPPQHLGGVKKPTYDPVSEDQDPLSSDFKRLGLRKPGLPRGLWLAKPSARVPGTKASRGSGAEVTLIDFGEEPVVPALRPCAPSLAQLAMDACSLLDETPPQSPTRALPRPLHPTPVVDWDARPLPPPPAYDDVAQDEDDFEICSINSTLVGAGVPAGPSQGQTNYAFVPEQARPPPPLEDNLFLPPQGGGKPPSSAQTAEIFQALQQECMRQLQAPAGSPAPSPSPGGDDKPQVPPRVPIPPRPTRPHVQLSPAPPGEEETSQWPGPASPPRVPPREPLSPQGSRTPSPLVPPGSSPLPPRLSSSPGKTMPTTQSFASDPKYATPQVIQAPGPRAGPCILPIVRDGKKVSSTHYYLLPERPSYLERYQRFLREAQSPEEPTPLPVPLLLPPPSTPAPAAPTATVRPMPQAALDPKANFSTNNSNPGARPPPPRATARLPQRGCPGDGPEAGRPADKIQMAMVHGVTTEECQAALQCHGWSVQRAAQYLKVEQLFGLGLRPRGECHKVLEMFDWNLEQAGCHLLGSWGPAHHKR
Description: as §1
To assess direct binding of ACK1 to H4, in vitro kinase assay was performed using purified ACK1 and H4 (New England Biolabs). Human ACK1 was expressed in insect cells and purified to homogeneity. Immunoblotting with pY88-H4 and pTyr antibodies confirmed that indeed H4 is directly Tyr-phosphorylated by ACK1 (FIG. 5a).

[3] = tested on: LNCaP cells; experiment: Cell proliferation, trypan blue exclusion, LNCaP; type: cell-based, human; conditions: Homo sapiens, LNCaP; 36 hrs, viable cells by trypan blue exclusion; read-out: IC50, inhibition of cell growth in LNCaP cells
Description: (§2) The number of viable cells was counted by trypan blue exclusion assay.
(§3) Three distinct human prostate cancer derived cell lines, LNCaP, LAPC4 and VCaP were either DMSO treated or treated with 1, 2.5, 5, 7.5 and 10 μM of inhibitors, AIM-100, (R)-9b and (S)-9b for 36 hrs and the number of viable cells were counted by trypan blue exclusion assay.
(§4) The ability of the ACK1 inhibitors to suppress proliferation of prostate cancer cell lines were also assessed. AIM-100, an ACK1 inhibitor, originally screened by Amgen was used as a control. […] Overall, it appears that ACK1 is needed for androgen-independent growth of prostate cancer cells.

[4] = tested on: AR and H3K4me3 at intron 2 of AR gene; experiment: ChIP-qPCR of AR and H3K4me3 at intron 2 of AR gene; type: cell-based, human; conditions: absence of androgen (FIG. 7)
Description: LNCaP cells treated with DZ1-067 and ChIP was performed using AR, H3K4me3, or IgG antibodies followed by qPCR using primers corresponding to intron 2, or control region. *p<0.05, **p<0.05, ***p<0.05, ****p<0.05.
To determine the functional and physiological relevance of pY88-H4/WDR5 interaction, and given the interaction of AR with MLL associated complex (Grasso C S, et al. The mutational landscape of lethal castration-resistant prostate cancer. Nature. 2012; 487(7406):239-43). ChIP experiments were performed to determine AR and H3K4me3 levels at the intron 2.

[5] = biological target: ALK (Homo sapiens, UniProt Q9UM73); experiment: Kinase IC50 profiling, ALK; type: biochemical; conditions: Table 4; 10-dose; 10 μM ATP; read-out: Compound IC50 (M), ALK
ALK, sequence (Q9UM73 19-1620): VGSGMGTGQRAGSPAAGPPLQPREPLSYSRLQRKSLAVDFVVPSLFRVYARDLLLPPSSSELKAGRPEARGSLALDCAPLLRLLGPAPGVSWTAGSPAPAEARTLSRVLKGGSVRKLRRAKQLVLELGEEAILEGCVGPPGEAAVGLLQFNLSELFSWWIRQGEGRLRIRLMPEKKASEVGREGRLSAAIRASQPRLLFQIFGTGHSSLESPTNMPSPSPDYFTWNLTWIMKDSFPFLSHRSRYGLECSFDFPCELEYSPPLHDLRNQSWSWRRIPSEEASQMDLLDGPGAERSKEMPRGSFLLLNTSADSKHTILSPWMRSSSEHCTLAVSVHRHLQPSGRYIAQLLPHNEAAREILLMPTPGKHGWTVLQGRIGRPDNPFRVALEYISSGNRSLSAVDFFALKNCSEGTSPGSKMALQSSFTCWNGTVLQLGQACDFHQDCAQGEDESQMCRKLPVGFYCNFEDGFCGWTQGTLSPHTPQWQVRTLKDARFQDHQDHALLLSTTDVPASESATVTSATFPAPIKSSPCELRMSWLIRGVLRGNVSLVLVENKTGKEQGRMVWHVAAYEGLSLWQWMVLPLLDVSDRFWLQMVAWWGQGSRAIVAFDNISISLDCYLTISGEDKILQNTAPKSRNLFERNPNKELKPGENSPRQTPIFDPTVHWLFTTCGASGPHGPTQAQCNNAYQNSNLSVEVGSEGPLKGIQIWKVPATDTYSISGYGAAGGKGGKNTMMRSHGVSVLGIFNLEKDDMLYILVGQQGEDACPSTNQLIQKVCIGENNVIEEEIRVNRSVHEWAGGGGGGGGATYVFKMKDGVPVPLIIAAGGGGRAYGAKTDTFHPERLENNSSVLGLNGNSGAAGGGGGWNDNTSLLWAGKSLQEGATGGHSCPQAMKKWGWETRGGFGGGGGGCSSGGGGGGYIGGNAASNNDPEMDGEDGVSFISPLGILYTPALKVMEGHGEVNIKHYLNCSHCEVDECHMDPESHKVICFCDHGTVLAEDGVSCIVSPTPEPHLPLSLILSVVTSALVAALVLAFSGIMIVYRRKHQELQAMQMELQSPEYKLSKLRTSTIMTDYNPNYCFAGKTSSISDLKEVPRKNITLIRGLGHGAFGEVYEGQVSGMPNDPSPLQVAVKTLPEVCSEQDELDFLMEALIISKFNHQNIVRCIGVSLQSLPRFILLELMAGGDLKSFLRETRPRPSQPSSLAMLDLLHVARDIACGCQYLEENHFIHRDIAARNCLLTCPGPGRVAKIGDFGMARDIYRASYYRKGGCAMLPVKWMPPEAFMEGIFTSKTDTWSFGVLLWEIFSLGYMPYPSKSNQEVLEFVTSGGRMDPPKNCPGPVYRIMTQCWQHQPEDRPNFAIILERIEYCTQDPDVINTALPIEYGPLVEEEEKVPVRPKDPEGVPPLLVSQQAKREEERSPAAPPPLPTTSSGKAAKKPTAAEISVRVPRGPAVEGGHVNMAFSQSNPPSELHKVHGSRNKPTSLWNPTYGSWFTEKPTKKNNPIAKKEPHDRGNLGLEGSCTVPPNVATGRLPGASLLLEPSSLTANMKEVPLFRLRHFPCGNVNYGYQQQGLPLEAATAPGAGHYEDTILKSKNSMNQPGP
Description: (§5) 8 compounds were tested against […], ACK1, Src and ALK in various combinations. […] Reactions were carried out at 10 μM ATP.

[6] = biological target: T1, ACK1; experiment: 32P Hotspot assay (Reaction Biology), ACK1 IC50; type: biochemical
Description: as §5

[7] = tested on: AR; experiment: AR mRNA by real time PCR in androgen-deprived prostate cancer cells; type: cell-based, human; conditions: overnight treatment (FIG. 3a, b)
Text: Total RNA was isolated followed by qPCR with AR primers. VCaP, *p=0.022; LNCaP, *p=0.042, **p=0.047. […] Total RNA was isolated followed by qPCR with PSA primers.

[8] = tested on: VCaP cells; experiment: Cell proliferation, trypan blue exclusion, VCaP; type: cell-based, human; conditions: Homo sapiens, VCaP; 36 hrs, viable cells by trypan blue exclusion; read-out: IC50, inhibition of cell growth in VCaP cells
Description: as §2, §3, §4

[9] = tested on: pY88-H4 marks in AR gene; experiment: ChIP-qPCR of pY88-H4 marks at the AR gene; type: cell-based, human; conditions: cells grown in absence of androgen (FIG. 6)
Description: In FIG. 6(a), the human AR gene and two pY88-H4 binding sites are shown. […] VCaP: *p<0.05, **p<0.05; LNCaP: *p<0.05, **p<0.05
To determine whether ACK1 modifies chromatin at AR gene locus, LNCaP and LAPC4 cells grown in the absence of androgen and were treated with DZ1-067. Chromatin immunoprecipitation (ChIP) was performed using pY88-H4 antibodies, followed by real time PCR with primers corresponding to the AR promoter, intron 2 and 3′UTR (FIG. 6a). […] These marks were also deposited at 3′UTR of the AR gene but not at the promoter region (FIG. 6b, c).

[10] = biological target: T1, ACK1; experiment: ACK1 ELISA: phosphorylation of AKT-derived peptide; type: biochemical; conditions: 10 μM, Table 1, replicate values listed
[11] = tested on: AR; experiment: AR protein levels in androgen-deprived prostate cancer cells, immunoblotting; type: cell-based, human; conditions: immunoblotting (FIG. 2)
Description: Transcriptional regulation of the AR gene itself is a paradigm that merits thorough investigation. […] Whether AR utilizes ACK1 to facilitate its transcriptional co-activator function is not known. […] Cells were also treated with ACK1-specific small molecule inhibitors, DZ1-067 or AIM-100.

[12] = biological target: c-Src (Homo sapiens, UniProt P12931); experiment: Kinase IC50 profiling, c-Src; type: biochemical; conditions: Table 3; 10-dose; 10 μM ATP; read-out: Compound IC50* (M): c-Src
c-Src, sequence (P12931 whole entry): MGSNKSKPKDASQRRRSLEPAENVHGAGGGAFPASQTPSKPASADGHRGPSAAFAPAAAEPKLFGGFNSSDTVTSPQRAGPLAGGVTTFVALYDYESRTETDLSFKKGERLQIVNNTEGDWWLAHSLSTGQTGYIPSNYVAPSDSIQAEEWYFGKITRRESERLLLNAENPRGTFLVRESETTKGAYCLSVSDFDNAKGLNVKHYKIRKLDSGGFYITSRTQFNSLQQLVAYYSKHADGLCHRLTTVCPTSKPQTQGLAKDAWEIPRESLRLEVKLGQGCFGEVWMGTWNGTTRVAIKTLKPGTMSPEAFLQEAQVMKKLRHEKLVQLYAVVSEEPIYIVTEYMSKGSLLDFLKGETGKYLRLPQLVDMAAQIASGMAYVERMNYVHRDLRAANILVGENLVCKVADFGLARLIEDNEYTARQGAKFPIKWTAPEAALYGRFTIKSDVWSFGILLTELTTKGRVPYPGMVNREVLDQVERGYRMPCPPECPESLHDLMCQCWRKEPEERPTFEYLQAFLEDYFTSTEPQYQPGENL
Description: as §5

For `CN1CCN(c2ccc(Nc3ncc(Cl)c(NC[C@H]4CCCO4)n3)cc2)CC1` [DZ1-067, (R)-5-chloro-N2-(4-(4-methylpiperazin-1-yl)phenyl)-N4-((tetrahydrofuran-2-yl)methyl)pyrimidine-2,4-diamine], the “endogenous pY88-phosphorylation of H4 in LNCaP cells” value [1] was “eliminated”, the “H4 Tyr-phosphorylation by purified ACK1” value [2] was “abrogated” and the IC50 [3] was 1800 nM. The “AR and H3K4me3 methyl marks at intron 2 (ChIP)” value [4] was “abolished”, the IC50 [5] was 1.43e-07 M and the IC50 ([6]; Table 1, unit inferred, (RB) = Reaction Biology, replicates listed, read-out: IC50) was 5.6e-08 M and 5.78e-08 M and 6.05e-08 M. For the same compound, the IC50 ([6]; Table 3, 10-dose, 3-fold dilution from 10 μM, 10 μM ATP, read-out: Compound IC50* (M): ACK1) was 6.05e-08 M, the IC50 ([6]; Table 4, 10-dose, 10 μM ATP, read-out: Compound IC50 (M), ACK1) was 5.78e-08 M and the “AR mRNA levels” value [7] was “significantly suppressed”. For the same compound, the IC50 [8] was 2000 nM, the “pY88-H4 epigenetic marks in AR gene (ChIP)” value [9] was “erased” and the “% Inhibition at 10 μM (ELISA)” value [10] was 91%. For the same compound, the inhibition at 10 µM ([10]; read-out: % Inhibition at 10 μM (ELISA)) was 93%, the AR protein levels [11] was “significant downregulation the AR protein” and the IC50 [12] was 4.38e-07 M.

Reference: patent publication US9850216B2 (H. LEE MOFFITT CANCER CENTER AND RESEARCH INSTITUTE, INC., priority 2013, dated 2017)
